Key:
[1] = molecular target: T1, Mer (Homo sapiens, UniProt Q12866); assay: LanthaScreen Eu kinase binding assay, Mer; conditions: Tracer 236
T1 construct: purchased Life Technologies
T1 sequence (Q12866 21-999): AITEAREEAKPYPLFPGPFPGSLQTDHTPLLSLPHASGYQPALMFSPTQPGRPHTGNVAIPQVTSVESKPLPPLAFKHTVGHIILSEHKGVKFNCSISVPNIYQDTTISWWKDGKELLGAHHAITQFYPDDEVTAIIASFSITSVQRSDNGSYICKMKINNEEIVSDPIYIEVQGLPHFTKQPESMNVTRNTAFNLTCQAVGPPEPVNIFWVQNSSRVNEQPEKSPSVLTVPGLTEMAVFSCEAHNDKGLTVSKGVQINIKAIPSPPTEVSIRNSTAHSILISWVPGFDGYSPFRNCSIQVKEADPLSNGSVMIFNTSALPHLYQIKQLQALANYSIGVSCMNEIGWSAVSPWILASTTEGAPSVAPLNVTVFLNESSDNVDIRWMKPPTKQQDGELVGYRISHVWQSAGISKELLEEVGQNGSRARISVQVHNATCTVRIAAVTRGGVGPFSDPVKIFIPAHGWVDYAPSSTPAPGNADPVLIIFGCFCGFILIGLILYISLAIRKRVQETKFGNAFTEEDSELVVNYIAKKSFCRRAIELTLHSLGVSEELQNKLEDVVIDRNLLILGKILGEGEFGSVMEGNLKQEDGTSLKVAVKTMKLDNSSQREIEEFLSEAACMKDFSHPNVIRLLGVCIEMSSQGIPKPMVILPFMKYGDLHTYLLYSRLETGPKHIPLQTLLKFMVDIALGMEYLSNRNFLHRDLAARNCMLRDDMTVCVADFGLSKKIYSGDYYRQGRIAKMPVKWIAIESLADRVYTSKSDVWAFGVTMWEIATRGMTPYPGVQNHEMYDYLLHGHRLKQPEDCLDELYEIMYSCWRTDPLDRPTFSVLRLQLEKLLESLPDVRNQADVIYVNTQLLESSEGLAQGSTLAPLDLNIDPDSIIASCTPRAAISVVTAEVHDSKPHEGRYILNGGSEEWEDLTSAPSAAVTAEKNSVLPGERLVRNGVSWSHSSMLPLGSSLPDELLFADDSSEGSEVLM

[2] = test system: Axl phosphorylation in transiently transfected HEK293T cells; assay: Cellular Axl phosphorylation assay; type: cell-based; conditions: Homo sapiens, HEK-293T; HEK293T cells transfected with Axl, 1 hour compound treatment, Phospho-Axl vs Total-Axl
Excerpt: Cell AXL Inhibition Assay Principle
The assay is based on the measurement of the relative amounts of Total-Axl and Phosphorylated-Axl in whole cell lysates of transiently transfected HEK293T cells. This assay is based on application of the Mesoscale western blot and subsequent electro-chemiluminescence detection. Overexpression of Axl-RTK (Receptor tyrosine kinase) by transfection leads to an increase in Axl-trans-autophosphorylation events. Upon compound treatment, the correlation of the measured values of Phosphorylated-Axl and Total Axl indicate the potential of the tested compound to inhibit Axl-phosphorylation at the given compound concentration.
Cell AXL Inhibition Assay Protocol
HEK293T cells (2.5×10^4/well) were plated in a 96 well plate and cells were transfected with pcDNA_DEST_40 Axl or pcDNA_DEST_40 by Superfact reagent (Qiagen. Co. Ltd.). After overnight, the transfection reagent of each well was removed from cells and replaced by fresh prewarmed medium. On the following day, cells were treated with the respective test compound which was diluted by the same method, as in the Axl binding assay using DMSO, for 1 hour
After incubation with the test compounds, cells in the well of the plate were lysed using Tris lysis buffer. The lysate was transferred to two plates (total-Axl and phosphor-Axl) Mesoscale high bind plates and incubated for two hours at room temperature. Afterwards the lysates were removed from the plates and the plates were blocked using Blocking buffer. Subsequently Total-Axl antibody (H-124, Santa Cruz) was transferred to one Mesoscale high bind plate, and Phospho-Axl antibody (AF2228, R&D) to the other plate. After 1 h incubation, Sulpho-Tag antibody (goat anti-rabbit, Mesoscale) was added and again incubated for 1 hour. For the measurement, 2×MSD read buffer was added to each well and the plates were analyzed with a Mesoscale Sector Imager 2400. IC50 (half the maximal inhibitory concentration) was determined relative to between the vehicle (DMSO) control group and minimum control group as transfection of the control vector (pcDNA_DEST_40).
The results after this assay are shown in table 3 for selected compounds.

[3] = molecular target: T2, Met (Homo sapiens, UniProt P08581); assay: LanthaScreen Eu kinase binding assay, Met; conditions: Tracer 236, read-out: cMet kinase binding activity (Kd)
T2 construct: purchased Life Technologies
T2 sequence (P08581 25-1390): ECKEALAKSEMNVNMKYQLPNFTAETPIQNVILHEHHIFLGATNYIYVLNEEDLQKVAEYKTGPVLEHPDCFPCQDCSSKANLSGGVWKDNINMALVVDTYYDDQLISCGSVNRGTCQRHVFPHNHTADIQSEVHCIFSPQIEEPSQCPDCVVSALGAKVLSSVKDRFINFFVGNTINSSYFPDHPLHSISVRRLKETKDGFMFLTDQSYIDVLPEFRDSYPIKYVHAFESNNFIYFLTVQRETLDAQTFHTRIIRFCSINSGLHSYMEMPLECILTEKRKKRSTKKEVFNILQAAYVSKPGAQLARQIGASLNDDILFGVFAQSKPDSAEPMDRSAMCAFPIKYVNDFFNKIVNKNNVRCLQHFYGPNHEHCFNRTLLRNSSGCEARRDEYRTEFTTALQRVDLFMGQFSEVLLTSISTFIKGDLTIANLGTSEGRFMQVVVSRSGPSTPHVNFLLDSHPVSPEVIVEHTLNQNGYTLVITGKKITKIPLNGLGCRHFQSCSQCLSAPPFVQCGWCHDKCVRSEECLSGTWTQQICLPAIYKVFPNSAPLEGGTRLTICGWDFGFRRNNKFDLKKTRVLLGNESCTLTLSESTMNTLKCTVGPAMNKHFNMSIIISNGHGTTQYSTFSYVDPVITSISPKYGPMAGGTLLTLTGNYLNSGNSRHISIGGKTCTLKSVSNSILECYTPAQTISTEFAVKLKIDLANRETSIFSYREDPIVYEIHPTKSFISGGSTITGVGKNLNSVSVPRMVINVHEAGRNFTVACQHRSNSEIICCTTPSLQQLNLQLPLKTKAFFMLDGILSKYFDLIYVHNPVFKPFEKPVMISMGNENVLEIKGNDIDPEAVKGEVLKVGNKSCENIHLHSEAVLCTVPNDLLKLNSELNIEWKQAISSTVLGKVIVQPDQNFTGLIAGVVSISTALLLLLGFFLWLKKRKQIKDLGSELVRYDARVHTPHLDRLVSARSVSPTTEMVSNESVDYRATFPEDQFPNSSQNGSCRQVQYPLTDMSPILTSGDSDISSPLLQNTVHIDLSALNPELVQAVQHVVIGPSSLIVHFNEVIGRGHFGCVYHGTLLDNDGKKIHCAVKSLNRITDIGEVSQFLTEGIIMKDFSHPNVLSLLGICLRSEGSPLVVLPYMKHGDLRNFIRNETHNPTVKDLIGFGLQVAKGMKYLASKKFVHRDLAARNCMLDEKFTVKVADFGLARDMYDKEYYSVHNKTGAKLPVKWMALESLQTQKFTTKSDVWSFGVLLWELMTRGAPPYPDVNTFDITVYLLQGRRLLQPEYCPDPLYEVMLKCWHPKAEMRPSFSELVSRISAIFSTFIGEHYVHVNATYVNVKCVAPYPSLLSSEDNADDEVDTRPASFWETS

Structure (SMILES) | Kd [1] [nM] | Kd [3] [nM] | IC50 [2] [nM]
CCOc1cn(-c2cnccc2CCO)nc1C(=O)Nc1ccc(Oc2ccnc3cc(OC)c(OC)cc23)cn1 [Compound 181] | < 100 | < 100 | < 100
CCOc1cn(-c2cnccc2C(C)=O)nc1C(=O)Nc1ccc(Oc2ccnc3cc(OC)c(OC)cc23)cn1 [Compound 182] | < 100 | < 100 | < 100
CCOc1cn(-c2cnccc2Cl)nc1C(=O)Nc1ccc(Oc2ccnc3cc(OC)c(OC)cc23)cn1 [Compound 183] | < 100 | < 100 | < 100
CCOc1cn(-c2cnccc2C(C)(C)O)nc1C(=O)Nc1ccc(Oc2ccnc3cc(OC)c(OC)cc23)cn1 [Compound 184] | < 100 | < 100 | < 100
COc1cc2nccc(Oc3ccc(NC(=O)c4nn(-c5cccnc5)cc4OCC(F)(F)F)nc3)c2cc1OC [Compound 185] | < 100 | < 100 | < 100
COc1cc2nccc(Oc3ccc(NC(=O)c4nn(-c5ccc(OC(F)(F)F)cc5Cl)cc4OCC(F)(F)F)nc3)c2cc1OC [Compound 186] | < 100 | 100 to 1000 | < 100
CCOc1cn(-c2c(C)ccnc2C)nc1C(=O)Nc1ccc(Oc2ccnc3cc(OC)c(OC)cc23)c(F)c1 [Compound 188] | < 100 | < 100 | < 100
CCOc1cn(-c2ccc(OC(F)(F)F)cc2Cl)nc1C(=O)Nc1ccc(Oc2ccnc3cc(OC)c(OC)cc23)c(F)c1 [Compound 189] | < 100 | < 100 | < 100
CCOc1cn(-c2nccnc2Cl)nc1C(=O)Nc1ccc(Oc2ccnc3cc(OC)c(OC)cc23)cc1F [Compound 190] | < 100 | < 100 | < 100
CCOc1cn(-c2c(C)ccnc2C)nc1C(=O)Nc1ccc(Oc2ccnc3cc(OC)c(OC)cc23)cc1F [Compound 191] | < 100 | < 100 | < 100
CCOc1cn(-c2ccc(OC(F)(F)F)cc2Cl)nc1C(=O)Nc1ccc(Oc2ccnc3cc(OC)c(OC)cc23)cc1F [Compound 192] | < 100 | < 100 | < 100
CCOc1cn(-c2cnccc2Cl)nc1C(=O)Nc1ccc(Oc2ccnc3cc(OC)c(OC)cc23)c(F)c1 [Compound 193] | < 100 | < 100 | < 100
CCOc1cn(-c2cnccc2Cl)nc1C(=O)Nc1ccc(Oc2ccnc3cc(OC)c(OC)cc23)cc1F [Compound 194] | < 100 | < 100 | < 100
CCOc1cn(-c2cnccc2C(C)(C)O)nc1C(=O)Nc1ccc(Oc2ccnc3cc(OC)c(OC)cc23)c(F)c1 [Compound 195] | < 100 | < 100 | < 100
CCOc1cn(-c2cnccc2C(F)(F)F)nc1C(=O)Nc1ccc(Oc2ccnc3cc(OC)c(OC)cc23)cc1F [Compound 196] | < 100 | < 100 | < 100
CCOc1cn(-c2cnccc2C(C)(C)O)nc1C(=O)Nc1ccc(Oc2ccnc3cc(OC)c(OC)cc23)cc1F [Compound 197] | < 100 | < 100 | < 100
CCOc1cn(-c2cnccc2C(F)(F)F)nc1C(=O)Nc1ccc(Oc2ccnc3cc(OC)c(OC)cc23)c(F)c1 [Compound 198] | < 100 | < 100 | < 100
CCOc1cn(-c2cccnc2)nc1C(=O)Nc1ccc(Oc2ccnc3cc(OC)c(OC(F)(F)F)cc23)cn1 [Compound 199] | < 100 | ≥ 1000 | < 100
CCOc1cn(-c2nccnc2C(C)(C)O)nc1C(=O)Nc1ccc(Oc2ccnc3cc(OC)c(OC)cc23)cn1 [Compound 200] | < 100 | < 100 | < 100
CCOc1cn(-c2ccc(OC(F)(F)F)cc2Cl)nc1C(=O)Nc1ccc(Oc2ccnc3cc(OC)c(OC(F)(F)F)cc23)cn1 [Compound 201] | 100 to 1000 | 100 to 1000 | 100 to 1000
COc1cc2nccc(Oc3ccc(NC(=O)c4nn(-c5ccc(F)cc5C)cc4OCC(F)(F)F)nc3)c2cc1OC [Compound 203] | < 100 | < 100 | < 100
CCOc1cn(-c2cnccc2C(C)(O)CO)nc1C(=O)Nc1ccc(Oc2ccnc3cc(OC)c(OC)cc23)cn1 (stereo not drawn) [Compound 205] | < 100 | < 100 | < 100
CCOc1cn(-c2cccnc2)nc1C(=O)Nc1ccc(Oc2ccnc3cc(OC(C)CC)c(OC)cc23)cn1 (stereo not drawn) [Compound 206] | < 100 | ≥ 1000 | < 100

Now from value to compound, other results behind:

Kd [1] [nM] | Kd [3] [nM] | Structure (SMILES) | IC50 [2] [nM]
< 100 | < 100 | CCOc1cn(-c2ncc(Cl)cc2C#N)nc1C(=O)Nc1ccc(Oc2ccnc3cc(OC)c(OC)cc23)cn1 [Compound 133] | < 100
< 100 | < 100 | CCOc1cn(-c2cnc(N)nc2)nc1C(=O)Nc1ccc(Oc2ccnc3cc(OC)c(OC)cc23)c(F)c1 [Compound 141] | < 100
< 100 | < 100 | CCOc1cn(-c2cnc(OC)nc2)nc1C(=O)Nc1ccc(Oc2ccnc3cc(OC)c(OC)cc23)cn1 [Compound 148] | < 100
< 100 | < 100 | CCOc1cn(-c2cnccc2C)nc1C(=O)Nc1ccc(Oc2ccnc3cc(OC)c(OC)cc23)cc1F [Compound 151] | < 100
< 100 | < 100 | CCOc1cn(-c2cnc(C)cn2)nc1C(=O)Nc1ccc(Oc2ccnc3cc(OC)c(OC)cc23)cn1 [Compound 160] | < 100
< 100 | < 100 | CCOc1cn(-c2noc(C)n2)nc1C(=O)Nc1ccc(Oc2ccnc3cc(OC)c(OC)cc23)cn1 [Compound 161] | < 100
< 100 | < 100 | CCOc1cn(-c2nccnc2C(F)(F)F)nc1C(=O)Nc1ccc(Oc2ccnc3cc(OC)c(OC)cc23)cn1 [Compound 162] | < 100
< 100 | < 100 | CCOc1cn(-c2ncn(C)n2)nc1C(=O)Nc1ccc(Oc2ccnc3cc(OC)c(OC)cc23)cn1 [Compound 165] | < 100
< 100 | < 100 | CCOc1cn(-c2cncnc2C2CC2)nc1C(=O)Nc1ccc(Oc2ccnc3cc(OC)c(OC)cc23)cn1 [Compound 167] | < 100
< 100 | < 100 | CCOc1cn(-c2nc[nH]n2)nc1C(=O)Nc1ccc(Oc2ccnc3cc(OC)c(OC)cc23)cn1 [Compound 168] | < 100
< 100 | ≥ 1000 | CCOc1cn(-c2cnc(Cl)cn2)nc1C(=O)Nc1ccc(Oc2ccnc3cc(OC)c(OC)cc23)cn1 [Compound 169] | < 100
< 100 | < 100 | CCOc1cn(-c2cnccc2C(F)(F)F)nc1C(=O)Nc1ccc(Oc2ccnc3cc(OC)c(OC)cc23)cn1 [Compound 170] | < 100
< 100 | < 100 | CCOc1cn(-c2nccnc2Cl)nc1C(=O)Nc1ccc(Oc2ccnc3cc(OC)c(OC)cc23)cn1 [Compound 177] | < 100
< 100 | < 100 | CCOc1cn(-c2cnccc2CO)nc1C(=O)Nc1ccc(Oc2ccnc3cc(OC)c(OC)cc23)cn1 [Compound 179] | < 100
